Reference: article PMC7830545, “Rational Design of CYP3A4 Inhibitors: A One-Atom Linker Elongation in Ritonavir-Like Compounds Leads to a Marked Improvement in the Binding Strength” (International Journal of Molecular Sciences, 2021)

Key:
[1] = target: T1, CYP3A4 (Homo sapiens, UniProt P08684); assay: Spectral binding titrations (equilibrium ligand binding, type II spectral change); design: Codon-optimized full-length and Δ3–22 human CYP3A4 were produced as reported previously [45] and used for assays and crystallization, respectively; made in house; conditions: for Kd: WT CYP3A4, 2 μM protein, pH 7.4, quadratic fits to titration plots, read-out: Ks (spectral dissociation constant); for λmax (nm) Ferric: ferric inhibitor-bound CYP3A4, Soret band; for λmax (nm) ferrous: ferrous inhibitor-bound CYP3A4, Soret band; for ΔAmax: maximal absorbance change (peak/trough in difference spectrum) relative to that induced by ritonavir; for A421/417: ratio between the absorbance maxima of ferric ligand-bound and ligand-free CYP3A4
[2] = target: T1, CYP3A4; assay: Stopped-flow kinetics of ligand binding; design: Codon-optimized full-length and Δ3–22 human CYP3A4 were produced as reported previously [45] and used for assays and crystallization, respectively; made in house; conditions: for k fast: rate constant for the fast phase of the ligand binding reaction; for percentage of the fast phase: value in brackets of k fast column
Method: (§1) Kinetics of Ligand Binding and Heme Reduction—Kinetics of ligand binding to CYP3A4 and its reduction with sodium dithionite were measured at 426 and 443 nm, respectively, in a SX.18MV stopped flow apparatus (Applied Photophysics, UK), as described earlier.

[3] = target: T1, CYP3A4; assay: H2O2-dependent heme depletion assay; design: Codon-optimized full-length and Δ3–22 human CYP3A4 were produced as reported previously [45] and used for assays and crystallization, respectively; made in house; conditions: for % decay (heme destroyed at the end of the reaction): 1.6 μM CYP3A4, 16 μM inhibitor, 10 mM H2O2, 120 min, relative to ligand-free CYP3A4 (100% decay); for higher heme loss: weaker ligands compared with the strongest binders/inhibitors; for heme preserved: 10 mM H2O2, end of the reaction
[4] = target: T1, CYP3A4; assay: Inhibitory potency for BFC O-debenzylation activity in a soluble reconstituted system; type: biochemical; design: The full-length CYP3A4 and rat cytochrome P450 reductase (40 and 60 μM, respectively) were preincubated; made in house; conditions: BFC debenzylase activity, 0.1 μM CYP3A4 with cytochrome P450 reductase, no NADPH preincubation
[5] = target: T1, CYP3A4; assay: Kinetics of heme reduction of inhibitor-bound CYP3A4 with sodium dithionite; design: Codon-optimized full-length and Δ3–22 human CYP3A4 were produced as reported previously [45] and used for assays and crystallization, respectively; made in house; conditions: for portion of the protein reduced: k ET, heme reduction by sodium dithionite; for k ET: rate constant for reduction of inhibitor-bound CYP3A4 with sodium dithionite
Description: Ritonavir-like molecules inhibit CYP3A4 not only via heme ligation and decrease in the heme redox potential but also by blocking the active site and preventing substrates from accessing the catalytic centre. We usually evaluate the heme accessibility by measuring the rate and percentage of anaerobic heme reduction by sodium dithionite, an artificial electron donor (k^ET in Table 1). […] Therefore, we utilized another method, heme bleaching with hydrogen peroxide, to probe the accessibility of the cofactor. H2O2 is a small oxidizing agent that easily penetrates the protein interior and destroys the heme without altering the P450 structure. Due to the complex, multiphasic nature of heme decay kinetics, it was more convenient to compare the percentage of heme destroyed at the end of the reaction.
as §1

[6] = target: T1, CYP3A4; assay: Thermal denaturation (melting temperature of ligand-bound CYP3A4); type: binding; design: Codon-optimized full-length and Δ3–22 human CYP3A4 were produced as reported previously [45] and used for assays and crystallization, respectively; made in house; conditions: 1 μM protein, 20 μM ligand; for ΔTm: ligand-dependent change in melting temperature; for ΔTm at 15 min, 20 μM: human, purified CYP3A4 protein, pH 7.4, ligand-dependent change in melting temperature
Method: Thermal Denaturation—Thermal denaturation curves were recorded in 0.1 M phosphate buffer, pH 7.4, in a Cary 300 spectrophotometer. Protein (1 μM) was mixed with a ligand (20 μM) and incubated for 15 min at 23 °C. Melting curves were recorded at 260 nm using a 0.2 °C measurement step, 0.9 °C/min ramp rate, and a 50–75 °C temperature range. A denaturation midpoint (melting temperature; Tm) was determined from non-linear fittings to the melting curve as described earlier.

[7] = target: T2, K421A/K424A CYP3A4 (Homo sapiens, UniProt P08684, K421A/K424A); assay: Spectral binding titrations with the K421A/K424A mutant; conditions: read-out: Ks (dissociation constant)
T2 construct: made in house
T2 sequence (P08684 with tags, fused parts or gaps K421A/K424A): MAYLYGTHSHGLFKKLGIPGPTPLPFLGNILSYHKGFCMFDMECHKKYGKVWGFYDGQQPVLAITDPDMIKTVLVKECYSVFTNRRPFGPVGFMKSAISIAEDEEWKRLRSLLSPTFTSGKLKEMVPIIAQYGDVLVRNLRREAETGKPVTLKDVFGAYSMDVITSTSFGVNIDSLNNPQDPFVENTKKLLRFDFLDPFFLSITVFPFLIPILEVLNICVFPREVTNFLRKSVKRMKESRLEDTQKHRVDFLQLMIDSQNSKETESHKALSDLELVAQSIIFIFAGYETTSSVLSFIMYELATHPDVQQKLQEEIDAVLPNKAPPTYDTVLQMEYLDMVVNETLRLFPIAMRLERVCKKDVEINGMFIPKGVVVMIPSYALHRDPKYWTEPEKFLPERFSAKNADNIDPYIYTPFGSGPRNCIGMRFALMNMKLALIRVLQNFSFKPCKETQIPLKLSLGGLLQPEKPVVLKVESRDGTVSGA

T1 sequence (P08684 whole entry): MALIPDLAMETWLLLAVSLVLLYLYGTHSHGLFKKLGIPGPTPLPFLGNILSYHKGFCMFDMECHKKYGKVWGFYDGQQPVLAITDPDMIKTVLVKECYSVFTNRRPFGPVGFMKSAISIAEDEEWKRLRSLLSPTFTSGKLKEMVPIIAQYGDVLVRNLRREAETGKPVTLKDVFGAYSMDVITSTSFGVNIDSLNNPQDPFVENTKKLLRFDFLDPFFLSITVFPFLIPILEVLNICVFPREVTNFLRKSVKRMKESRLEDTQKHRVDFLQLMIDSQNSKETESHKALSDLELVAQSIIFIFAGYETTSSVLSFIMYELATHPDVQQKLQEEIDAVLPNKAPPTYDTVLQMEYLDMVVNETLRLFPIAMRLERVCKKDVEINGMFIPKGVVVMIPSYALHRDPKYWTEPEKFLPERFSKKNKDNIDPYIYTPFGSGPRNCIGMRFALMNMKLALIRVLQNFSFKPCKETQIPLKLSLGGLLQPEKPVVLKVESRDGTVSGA

| SMILES | Kd [1] [µM] | λmax (nm) Ferric [1] [nm] | λmax (nm) ferrous [1] [nm] | ΔAmax [1] [%] | A421/417 [1] | k fast [2] [s⁻¹] | percentage of the fast phase [2] [%] | % decay (heme destroyed at the end of the reaction) [3] [%] | higher heme loss [3] | IC50 [4] [µM] | portion of the protein reduced [5] [%] | k ET [5] [s⁻¹] | ΔTm [6] [°C] | Kd [7] [µM] | ΔTm at 15 min, 20 μM [6] [°C] | heme preserved [3] [%] | fold decrease in Ks ([1]; relative to shorter pyridyl-ethyl counterpart 7b (series IV)) [fold] |
| --- | --- | --- | --- | --- | --- | --- | --- | --- | --- | --- | --- | --- | --- | --- | --- | --- | --- |
| CC(C)(C)OC(=O)NC(CSC(Cc1ccccc1)C(=O)NCCCc1cccnc1)Cc1cccc2ccccc12 (centres unmarked) [Compound 3g] | 0.024 ± 0.006 | 422 | 444 | 111 | 1.09 | 10.8 | 32 | 22 | 4–16% | 0.3 ± 0.06 | 75 | 0.011 | 4.9 | – | – | – | – |
| CC(C)(C)OC(=O)N[C@@H](CS[C@H](Cc1ccccc1)C(=O)NCCCc1cccnc1)Cc1ccccc1 [Compound 3d] | – | – | – | – | – | 12.0 | 38 | 22 | – | 0.21 ± 0.02 | 95 | 0.013 | – | 0.019 | 5.6 | – | – |
| CC(C)(C)OC(=O)N[C@H](CS[C@H](Cc1ccccc1)C(=O)NCCCc1cccnc1)Cc1c[nH]c2ccccc12 [Compound 3e] | 0.019 ± 0.002 | 422 | 444 | 125 | 1.11 | 20.1 | 24 | 18 | – | 0.15 ± 0.03 | 85 | 0.020 | – | – | 7.8 | > 80 | 4 |
| CC(C)(C)OC(=O)NC(CSC(Cc1ccccc1)C(=O)NCCCc1cccnc1)Cc1ccccc1 (centres unmarked) [Compound 3b] | 0.029 ± 0.004 | 421 | 443 | 111 | 1.08 | – | – | 26 | 4–16% | 0.3 ± 0.02 | 87 | 0.014 | 5.3 | – | – | – | – |
| CC(C)(C)OC(=O)NC(CSCC(Nc1ccccc1)C(=O)NCc1cccnc1)Cc1cccc2ccccc12 (centres unmarked) [Compound 5b, reference compound] | – | – | – | – | – | – | – | 25 | – | – | – | – | – | – | – | – | – |
| CC(C)(C)OC(=O)NC(CSC(Cc1ccccc1)C(=O)NCCOCc1cccnc1)Cc1ccccc1 (centres unmarked) [Compound 6] | 0.213 ± 0.009 | 422 | 443 | 113 | 1.07 | 9.5 | 29 | 34 | 4–16% | 0.73 ± 0.06 | 65 | 0.017 | – | – | < 3 | – | – |
| CC(C)(C)OC(=O)N[C@H](CS[C@@H](Cc1ccccc1)C(=O)NCCCc1cccnc1)Cc1ccccc1 [Compound 3c] | – | – | – | – | – | – | – | – | – | 0.31 ± 0.04 | 77 | 0.012 | – | – | 5.8 | – | – |
| CC(C)(C)OC(=O)NC(CSCC(Nc1ccccc1)C(=O)NCCCc1cccnc1)Cc1ccccc1 (centres unmarked) [Compound 8] | 0.028 ± 0.004 | 422 | 444 | 114 | 1.10 | 16.2 | 30 | 22 | – | 0.33 ± 0.03 | 58 | 0.018 | – | – | 5 | – | – |

More lines, in order of falling IC50 [4], values ahead:

| Kd [1] [µM] | λmax (nm) Ferric [1] [nm] | λmax (nm) ferrous [1] [nm] | ΔAmax [1] [%] | A421/417 [1] | k fast [2] [s⁻¹] | percentage of the fast phase [2] [%] | % decay (heme destroyed at the end of the reaction) [3] [%] | higher heme loss [3] | IC50 [4] [µM] | portion of the protein reduced [5] [%] | k ET [5] [s⁻¹] | ΔTm [6] [°C] | Kd [7] [µM] | ΔTm at 15 min, 20 μM [6] [°C] | heme preserved [3] [%] | fold decrease in Ks ([1]; relative to shorter pyridyl-ethyl counterpart 7b (series IV)) [fold] | SMILES |
| --- | --- | --- | --- | --- | --- | --- | --- | --- | --- | --- | --- | --- | --- | --- | --- | --- | --- |
| – | – | – | – | – | 12.5 | 36 | 18 | – | 0.16 ± 0.02 | – | – | – | – | 8.1 | > 80 | – | CC(C)(C)OC(=O)NC(CSC(Cc1ccccc1)C(=O)NCCCc1cccnc1)Cc1ccccc1 (centres unmarked) [Compound 3a] |
| – | – | – | – | – | – | – | 15 | – | 0.16 ± 0.03 | 94 | 0.011 | – | – | 7.9 | > 80 | – | CC(C)(C)OC(=O)NC(CSC(Cc1ccccc1)C(=O)NCCCc1cccnc1)Cc1cccc2ccccc12 (centres unmarked) [Compound 3f] |
| 0.018 ± 0.003 | 422 | 444 | 114 | 1.10 | 12.3 | 24 | 23 | – | 0.15 ± 0.02 | 97 | 0.021 | – | 0.025 | 5.5 | – | – | CC(C)(C)OC(=O)N[C@@H](CS[C@H](Cc1ccccc1)C(=O)NCCCc1cccnc1)Cc1cccc2ccccc12 [Compound 3i] |
| 0.007 ± 0.001 | 422 | 444 | 112 | 1.09 | 16.1 | 24 | 12 | – | 0.09 ± 0.01 | 72 | 0.017 | – | – | – | > 80 | – | CC(C)(C)OC(=O)N[C@H](CS[C@@H](Cc1ccccc1)C(=O)NCCCc1cccnc1)Cc1cccc2ccccc12 [Compound 3h] |
